We go through 1 molecule from US20240108614A1, “Methods of Treating Diabetic Cardiomyopathy by Inhibiting GLUT1” (University of Cincinnati, priority 2022, published 2024).

What all share (format): in vivo
Assay [1] relates to type 1 diabetic mice. Description: Type 1 diabetes mouse model, treatment over twelve weeks (prevention), 2D echocardiography. The protocol: To explore whether GLUT1 inhibition holds therapeutic potential against diabetic cardiomyopathy, diabetic mice were treated with a GLUT1 inhibitor (STF-31). Specifically, type 1 diabetes was induced in WT mice and mice were monitored for twelve weeks.
(§1) To evaluate the impact of GLUT1 and myocardial glucose content changes on cardiac function and structure, 2D echocardiography was performed to measure EF, FS, end-diastolic and end-systolic volumes (EDV, ESV), stroke volume (SV), and cardiac output (CO) using M-mode short axis images, automatic tracing, myocardial strain and strain rate with speckle tracking. From the pulsed wave Doppler spectral waveforms, the peak early and late diastolic transmitral velocities (E, A waves) were measured to obtain the E/A ratio.
One group of mice was treated with STF-31 for the entire twelve-weeks period.
Prior to this disclosure, treatment of diabetic patients with SGLT2 inhibitors (dapa or empagliflozin), has shown the most robust cardioprotective effects. Treatment of diabetic mice with dapa corrected hyperglycemia (FIG. 4A) and prevented systolic (FIG. 4B) and diastolic heart failure (FIG. 4C) in both early and late type 1 diabetes.

For assay [2], the system named is type 1 diabetic mice. Briefly: Type 1 diabetes mouse model, treatment started after cardiac dysfunction was confirmed (6 weeks) until the twelfth week. The protocol:
as §1
In another mouse cohort, treatment with either STF-31 or dapa started after cardiac dysfunction was confirmed (6 weeks of type 1 diabetes) and continued until the twelfth week. This treatment corrected both systolic (FIG. 4D) and diastolic (FIG. 4E) dysfunction. Importantly, treatment with either STF-31 or dapa prevented upregulation of KLF5. Thus, inhibition of GLUT1 appears as a novel therapeutic target for diabetic cardiomyopathy that prevents activation of the cardiotoxic FOXO1-KLF5 axis.

In assay [3] the test system is type 2 diabetic mice (HFD). Briefly: Type 2 diabetes mouse model (high-fat diet 32 weeks, then 8 weeks of treatment). The settings on record: HFD type 2 diabetes mice. An excerpt:
Similar results were shown in mouse models of type 2 diabetes, wherein mice were fed a high-fat diet (HFD) for 32 weeks prior to initiating 8 weeks of treatment with SFT-31.

The mark [4] stands for this setting: treatment from 6 weeks of type 1 diabetes until twelfth week, after confirmed cardiac dysfunction.

As for `CC(C)(C)c1ccc(S(=O)(=O)NCc2ccc(C(=O)Nc3cccnc3)cc2)cc1` [STF-31], in assay [1], the “diastolic dysfunction (mitral valve E/A ratio)” value was “did not develop”, the “plasma glucose levels (hyperglycemia)” value is listed as “persistent hyperglycemia” and the systolic dysfunction entry is on record as “did not develop”. Further, in assay [2] (setting [4]), the diastolic dysfunction entry was “corrected” and the systolic dysfunction entry is listed as “corrected”. Also, the “upregulation of KLF5” value in assay [2] (type 1 diabetic mice) was “prevented”. Also, in assay [3], the KLF5 upregulation entry is “prevented”, the diastolic dysfunction entry is given as “did not develop”, the hyperglycemia entry is given as “persistent hyperglycemia” and the systolic dysfunction result is reported as “did not develop”.
